3 compounds from patent US10143711B2, “Pathways to generate hair cells” (Massachusetts Eye & Ear Infirmary, priority 2008, dated 2018) can be followed below.

The test system of one data set is Atoh1 and β-catenin. The data set is described as follows: β-catenin and Atoh1 expression in bone marrow derived MSCs on Notch inhibition and β-catenin activation. Format: cell-based, human. The source says:
Notch signaling was inhibited using a γ-secretase inhibitor (DAPT) and β-catenin was activated using a GSK3β inhibitor (GSKi). […] Altered Notch activity was confirmed using CBF-1 luciferase reporter.
Mesenchymal stem cells (MSCs) were isolated from human bone marrow using the methods described by Jeon et al. (Mol. Cell. Neurosci., 34(1):59-68, (2007)). Cells were expanded once before use and cultured in MEM-α cell culture media (Sigma-Aldrich) supplemented with 9% horse serum, 9% fetal calf serum, and penicillin (100 U/mL) and streptomycin (100 μg/mL).

For the next data set, the system named is Atoh1. The data set is described as follows: Gene silencing with siRNA in neural progenitor cells and Neuro2a (RT-PCR). The data set is classed as cell-based, mouse. Particulars: 200 nM siRNA; for decrease of Atoh1 expression: harvested after 48 hours, neural progenitor cells and Neuro2a. On the procedure: The data shown in Examples 1-3 was corroborated using gene silencing. Briefly, siRNA were designed to silence Atoh1 (NM 007500.4, NM 005172.1) and β-catenin (NM_007614.2 and NM_001904.3), as shown below: Atoh1:
200 nM of each siRNA were transfected using the GeneSilencer™ transfection reagent at 5 μL/mL. Cells were incubated in the presence of the transfection mix for 16 hours and were harvested following a total of 48 hours. Non-targetting siRNA was used as control. Gene silencing was confirmed using RT-PCR. Cells were also transfected with Atoh1, β-catenin, or GFP using the methods described above.

As to `C[C@H](NC(=O)Cc1cc(F)cc(F)c1)C(=O)N[C@H](C(=O)OC(C)(C)C)c1ccccc1` [γ-secretase inhibitor, N—[N-(3,5-difluorophenacetyl)-L-alanyl]-(S)-phenylglycine t-butyl ester], the β-catenin expression result in the data set on Atoh1 and β-catenin (human bone marrow MSCs, DAPT used at 10 μM and 50 μM) is given as “increased”.
As for “Atoh1 siRNA: siRNA designed to silence Atoh1, SEQ ID NO:16 (GCAACGUUAUCCCGUCCUUUAACAGCGAUGAUGGCACA; listed as RNA, chemistry not given here)”, in the data set with Atoh1, the “decrease of Atoh1 expression” value is on record as “about 45%”.
Consider “β-catenin siRNA: siRNA designed to silence β-catenin, SEQ ID NO:17 (GCGCUUGGCUGAACCAUCAUUGUGAAAUUCUUGGCUAUUAUU; listed as RNA, chemistry not given here)”, for which, in the data set with Atoh1 (all cell types tested), the β-catenin expression levels result is recorded as “suppressed”. For the same compound, the “decrease of Atoh1 expression” value in the data set with Atoh1 is on record as “about 40%”. In addition, the Atoh1 expression result in the data set with Atoh1 and β-catenin (MSCs with γ-secretase treatment and siRNA suppression of β-catenin) is given as “reduced”.
